Earlier results on one compound are cited in patent US20090220611A1, “Microparticles With Modified Release of At Least One Active Principle and Oral Pharmaceutical Form Comprising Same” (priority 2005, published 2009).

For this data set the following is noted: qualitative statement.

For the compound `Nc1nc2c(ncn2COCCO)c(=O)[nH]1` [aciclovir], the water solubility result is given as “sparingly water-soluble”.
